Test results taken from publication PMC9643456, “Matching amino acids membrane preference profile to improve activity of antimicrobial peptides” (Communications Biology, 2022).
≈ marks a conversion by molar mass, not a printed value. Read-outs that look alike come from different tables or passages of the source. Square brackets hold non-standard residues; d marks the D form. Ends that are not written are not given here. Peptide text beside a SMILES is read from it.

Columns and labels:
[1] = system: MDR S. aureus; test: microbe, parasite or virus in culture; conditions: for Minimum inhibitory concentrations, MDR S. aureus: CLSI broth microdilution, CAMHB with 50 mg/L Ca2+, 10 mg/L Mg2+, 5 × 10^5 CFU/ml, 18 h 37 °C, triplicate, strain KCCM 40510; for MIC in 0.2% albumin and 0.01% AcOH added CLSI standard condition, MDR S. aureus: CAMHB plus 0.2% bovine serum albumin and 0.01% acetic acid, values marked * in Table 2
Description: (§1) MDR Pseudomonas aeruginosa (CCARM 2180) was purchased from the Culture Collection of Antimicrobial Resistance Microbes (Seoul, Republic of Korea). MDR Acinetobacter baumannii (ATCC BAA-1605) and MDR Enterococcus faecalis (ATCC 51575) were purchased from the American Type Culture Collection (Manassas, VA, USA). MDR Staphylococcus aureus (KCCM 40510) was purchased from the Korean Culture Center of Microorganisms (Seoul, Republic of Korea). S. aureus (KCTC 1621) was purchased from the Korean Collection for Type Cultures. A. baumannii (KCCM 40203) was purchased from the Korean Culture Center of Microorganisms (Seoul, Republic of Korea).
(§2) To assess antimicrobial activity, the MIC50 and MIC90 were measured using broth microdilution following CLSI guidelines. […] Each experiment was performed in triplicate. Meropenem (Sigma, Darmstadt, Germany) and colistin were used as control antibiotics. Cation-adjusted Mueller–Hinton broth (CAMHB) (Becton, Dickinson and Company, Franklin Lakes, USA) with supplied calcium (50 mg/L) and magnesium (10 mg/L) was used for the CLSI-test condition. Bacteria in midlog phase and peptides were separately diluted in CAMHB. The bacteria and peptide solutions were then mixed in 96-well polyethylene plates (SPL, Gyeonggi-do, Korea) and incubated for 18 h at 37 °C. The final concentration for bacteria was 5 × 10^5 CFU/ml. […] The MIC was defined to be the lowest concentration of peptide without visible turbidity by comparing with control antibiotics with the unaided eye. […] Each experiment was performed in triplicate. MICs in albumin and acetic acid solutions were measured using the same protocol but with 0.2% bovine serum albumin (Bovogen, Keilor, Australia), 0.01% acetic acid (Merck, New Jersey, USA), and CAMHB with both calcium and magnesium. In addition, MICs used in the antibiotic resistance acquisition test, the outer–inner membrane permeation test, and the transmembrane potential test and for FE-SEM were individually determined. The final bacterial concentrations used were as follows: for resistance acquisition, optical density (OD) 0.01; for outer–inner membrane permeability assays (LB), OD 0.1; for the transmembrane potential test, 1 × 10^8 CFU/ml (OD 0.171); […]. Inhibitory activity unidentifiable by direct observation was determined by counting the CFUs. Each experiment was performed at least twice.

[2] = system: MDR E. faecalis; test: microbe, parasite or virus in culture; conditions: for Minimum inhibitory concentrations, MDR E. faecalis: CLSI broth microdilution, CAMHB with 50 mg/L Ca2+, 10 mg/L Mg2+, 5 × 10^5 CFU/ml, 18 h 37 °C, triplicate, strain ATCC 51575; for MIC in 0.2% albumin and 0.01% AcOH added CLSI standard condition, MDR E. faecalis: CAMHB plus 0.2% bovine serum albumin and 0.01% acetic acid, values marked * in Table 2
Description: as §1, §2

[3] = system: MDR A. baumannii; test: microbe, parasite or virus in culture; conditions: for Minimum inhibitory concentrations, MDR A. baumannii: CLSI broth microdilution, CAMHB with 50 mg/L Ca2+, 10 mg/L Mg2+, 5 × 10^5 CFU/ml, 18 h 37 °C, triplicate, strain ATCC BAA-1605; for MIC in 0.2% albumin and 0.01% AcOH added CLSI standard condition, MDR A. baumannii: CAMHB plus 0.2% bovine serum albumin and 0.01% acetic acid, values marked * in Table 2
Description: as §1, §2

[4] = system: MDR P. aeruginosa; test: microbe, parasite or virus in culture; conditions: for Minimum inhibitory concentrations, MDR P. aeruginosa: CLSI broth microdilution, CAMHB with 50 mg/L Ca2+, 10 mg/L Mg2+, 5 × 10^5 CFU/ml, 18 h 37 °C, no visible turbidity, triplicate, strain CCARM 2180; for MIC in 0.2% albumin and 0.01% AcOH added CLSI standard condition, MDR P. aeruginosa: CAMHB plus 0.2% bovine serum albumin and 0.01% acetic acid, values marked * in Table 2
Description: as §1, §2

[5] = system: human red blood cells; test: Hemolytic activity; format: cell-based
Method in brief: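 Peptides (100 μM down to 0.78 μM) were incubated with 4% final human erythrocytes in PBS for 18 h at 37 °C. Supernatant absorbance at 540 nm after centrifugation was scaled to 1% Triton X-100 (100%) and no peptide (0%); melittin served as positive control; triplicate runs.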

| Compound | Minimum inhibitory concentrations, MDR S. aureus [1] | Minimum inhibitory concentrations, MDR E. faecalis [2] | Minimum inhibitory concentrations, MDR A. baumannii [3] | Minimum inhibitory concentrations, MDR P. aeruginosa [4] | Hemolysis percent, 25 μM ([5]; red cells of human, 18 h, 25) | Hemolysis percent, 50 μM ([5]; red cells of human, 18 h, 50) | Hemolysis percent, 100 μM ([5]; red cells of human, 18 h, 100) | MIC in 0.2% albumin and 0.01% AcOH added CLSI standard condition, MDR S. aureus [1] | MIC in 0.2% albumin and 0.01% AcOH added CLSI standard condition, MDR E. faecalis [2] | MIC in 0.2% albumin and 0.01% AcOH added CLSI standard condition, MDR A. baumannii [3] | MIC in 0.2% albumin and 0.01% AcOH added CLSI standard condition, MDR P. aeruginosa [4] | Hemolysis percent, 50 μM ([5]; red cells of human, 18 h, 50 μM) | actual MIC as weight/volume concentration ([3]; molar MIC converted with the molecular weight (melittin 2.85 kDa, WCopW5 1.47 kDa)) | Hemolysis percent, 25 μM [5] | Hemolysis percent, 50 μM [5] | Hemolysis percent, 100 μM [5] |
| --- | --- | --- | --- | --- | --- | --- | --- | --- | --- | --- | --- | --- | --- | --- | --- | --- |
| CC[C@@H](C)[C@@H](NC(=O)[C@@H](Cc1c[nH]c2ccccc12)NC(=O)[C@@H](C)NC(=O)[C@@H](C)NC(=O)[C@H](N)Cc1c[nH]c2ccccc12)C(=O)NCC(=O)N[C@H](CC(C)C)C(=O)N[C@H](CCCNC(=N)N)C(=O)N[C@H](CCCCN)C(=O)N[C@H](CCCCN)C(=O)N[C@H](CCCNC(=N)N)C(N)=O [WCopW20] (H-[dW][dA][dA][dW][dI]G[dL][dR][dK][dK][dR]-NH2) | > 20 µM | > 20 µM | 2.5 µM (≈ 3.46 µg/mL) | > 20 µM | 0.11% | 0.13% | 0.45% | – | – | – | – | – | – | – | – | – |
| WLLLLLRRR-NH2 [AcWL-1] | 10 µM | 10 µM | 2.5 µM | > 20 µM | 11.89 ±1.24% | – | 36.35 ±3.00% | 5 µM | 5 µM | 1.25 µM | > 20 µM | 20.52 ±1.25% | – | – | – | – |
| CC[C@@H](C)[C@@H](NC(=O)[C@@H](Cc1c[nH]c2ccccc12)NC(=O)[C@@H](CC(C)C)NC(=O)[C@@H](CC(C)C)NC(=O)[C@H](N)Cc1c[nH]c2ccccc12)C(=O)NCC(=O)N[C@H](CC(C)C)C(=O)N[C@H](CCCNC(=N)N)C(=O)N[C@H](CCCCN)C(=O)N[C@H](CCCCN)C(=O)N[C@H](CCCNC(=N)N)C(N)=O [WCopW5] (H-[dW][dL][dL][dW][dI]G[dL][dR][dK][dK][dR]-NH2) | 1.25 µM (≈ 1.83 µg/mL) | 2.5 µM (≈ 3.67 µg/mL) | 1.25 µM (≈ 1.83 µg/mL) | 10 µM (≈ 14.7 µg/mL) | 2.99% | 7.77% | 11.60% | – | – | – | – | – | 1.84 µg/mL | – | – | – |
| CC[C@@H](C)[C@@H](NC(=O)[C@@H](Cc1c[nH]c2ccccc12)NC(=O)[C@@H](CC(C)C)NC(=O)[C@@H](CC(C)C)NC(=O)[C@H](N)Cc1c[nH]c2ccccc12)C(=O)NCC(=O)N[C@H](CC(C)C)C(=O)N[C@H](CCCNC(=N)N)C(=O)N[C@H](CCCCN)C(=O)N[C@H](CCCCN)C(N)=O [WCopW8] (H-[dW][dL][dL][dW][dI]G[dL][dR][dK][dK]-NH2) | 2.5 µM (≈ 3.28 µg/mL) | 5 µM (≈ 6.56 µg/mL) | 5 µM (≈ 6.56 µg/mL) | > 20 µM | 3.85% | 8.51% | 15.04% | – | – | – | – | – | – | – | – | – |
| CC[C@@H](C)[C@@H](NC(=O)[C@@H](Cc1c[nH]c2ccccc12)NC(=O)[C@@H](CC(C)C)NC(=O)[C@H](N)CC(C)C)C(=O)NCC(=O)N[C@H](CC(C)C)C(=O)N[C@H](CCCNC(=N)N)C(=O)N[C@H](CCCCN)C(=O)N[C@H](CCCCN)C(=O)N[C@H](CCCNC(=N)N)C(N)=O [WCopW13] (H-[dL][dL][dW][dI]G[dL][dR][dK][dK][dR]-NH2) | > 20 µM | > 20 µM | 5 µM (≈ 6.41 µg/mL) | > 20 µM | 1.00% | 1.13% | 1.21% | – | – | – | – | – | – | – | – | – |
| CC[C@@H](C)[C@@H](NC(=O)[C@@H](Cc1c[nH]c2ccccc12)NC(=O)[C@@H](CC(C)C)NC(=O)[C@@H](CC(C)C)NC(=O)[C@@H](Cc1c[nH]c2ccccc12)NC(=O)[C@@H](N)CO)C(=O)NCC(=O)N[C@H](CC(C)C)C(=O)N[C@H](CCCNC(=N)N)C(=O)N[C@H](CCCCN)C(=O)N[C@H](CCCCN)C(=O)N[C@H](CCCNC(=N)N)C(N)=O [WCopW19] (H-S[dW][dL][dL][dW][dI]G[dL][dR][dK][dK][dR]-NH2) | 2.5 µM (≈ 3.89 µg/mL) | 2.5 µM (≈ 3.89 µg/mL) | 2.5 µM (≈ 3.89 µg/mL) | 10 µM (≈ 15.5 µg/mL) | 4.32% | 7.26% | 10.57% | – | – | – | – | – | – | – | – | – |
| WLLLLWRRR-NH2 [AcWL-3] | 5 µM | 5 µM | 2.5 µM | > 20 µM | 16.44 ±0.89% | 19.80 ±0.76% | 36.71 ±3.91% | 2.5 µM | 2.5 µM | 0.63 µM | > 20 µM | – | – | – | – | – |
| CC(C)C[C@@H](NC(=O)[C@H](N)Cc1c[nH]c2ccccc12)C(=O)N[C@H](CC(C)C)C(=O)N[C@H](Cc1c[nH]c2ccccc12)C(=O)N[C@H](C)C(=O)NCC(=O)N[C@H](C)C(=O)N[C@H](CCCNC(=N)N)C(=O)N[C@H](CCCCN)C(=O)N[C@H](CCCCN)C(=O)N[C@H](CCCNC(=N)N)C(N)=O [WCopW21] (H-[dW][dL][dL][dW][dA]G[dA][dR][dK][dK][dR]-NH2) | > 20 µM | > 20 µM | > 20 µM | > 20 µM | 0.60% | 1.03% | 1.74% | – | – | – | – | – | – | – | – | – |
| NH2 wM l l w i g l r k k r CONH2 [WCopW15, WCopW analog] | 1.25 µM | 2.5 µM | 1.25 µM | 10 µM | – | – | – | – | – | – | – | – | – | 0.65% | 1.16% | 4.04% |
| NH2 wF l l w i g l r k k r CONH2 [WCopW18, WCopW analog] | 1.25 µM | 2.5 µM | 1.25 µM | 5 µM | – | – | – | – | – | – | – | – | – | 1.89% | 4.52% | 6.74% |
| CC[C@@H](C)[C@@H](NC(=O)[C@@H](Cc1c[nH]c2ccccc12)NC(=O)[C@@H](CCCCN)NC(=O)[C@@H](CC(C)C)NC(=O)[C@H](N)Cc1c[nH]c2ccccc12)C(=O)NCC(=O)N[C@H](CC(C)C)C(=O)N[C@H](CCCNC(=N)N)C(=O)N[C@H](CCCCN)C(=O)N[C@H](CCCCN)C(=O)N[C@H](CCCNC(=N)N)C(N)=O [WCopWK] (H-[dW][dL][dK][dW][dI]G[dL][dR][dK][dK][dR]-NH2) | >20 µM | >20 µM | >20 µM | >20 µM | – | – | – | – | – | – | – | – | – | – | – | – |
